Q: With `COC(OC)c1cc(-n2c(=O)cc(C(F)(F)F)n(C)c2=O)ccc1Cl` as the compound, how does the melting point read?
A: 92 to 94 °C

Q: Which melting point does the source give for `COC1C=C2CC(OC(C)=O)CCC2(C)C2CCC3(C)C(=O)CCC3C12` (centres undefined) here?
A: 175 to 178 °C

Q: Which melting point does the source give for `Oc1nc(C2CC2)nc2c1SCCC2` here?
A: 249 to 250 °C

Q: For `CC1Oc2c(Cc3ccccc3)cc(C=O)cc2NC1=O` (centres undefined), which melting point is on record?
A: 163 to 166 °C

Q: With `Cc1ccc(SCc2noc(-c3ccccc3)n2)cc1` as the compound, how does the melting point read?
A: 71 °C

Q: With `COCCNC(=O)c1cccc(-c2nc(=O)c3ccccc3s2)n1` as the compound, how does the melting point read?
A: 176 to 177 °C

Q: Which melting point does the source give for `CCCCC1Sc2c(cc(OC)c(Cl)c2Cl)C1O` (centres undefined) here?
A: 95 to 96 °C

Q: For `CCNC(=O)Oc1cccc(NC(=O)CC(C)=O)c1`, which melting point is on record?
A: 138 °C

Q: With `CCCCCCCCCCCCCCCC(=O)OCC1OC(N2CNC(N)=NC2=O)CC1O` (centres undefined) as the compound, how does the melting point read?
A: 123 to 124 °C

Q: For `COP(=O)(Cc1nc2cc3c(cc2nc1C(=O)OC(C)(C)C)OC(C)(C)O3)OC`, which melting point is on record?
A: 86.3 to 87.9 °C

Q: With `CS(=O)c1c(C(F)(F)F)nn(-c2c(Cl)cc(C(F)(F)F)cc2Cl)c1N` (centres undefined) as the compound, how does the melting point read?
A: 142 to 145 °C

Q: Which melting point does the source give for `CC(=O)NC[C@H]1CN(c2ccc(C(=O)c3cnc4cnccn34)cc2)C(=O)O1` here?
A: 254 to 256 °C

Q: With `COC(=O)CC(Nc1ccccc1OC)c1cc2ccccc2nc1Cl` (centres undefined) as the compound, how does the melting point read?
A: 135 to 137 °C

Q: For `COC(=O)/C=C/c1cncc(-c2ccc(C)cc2)c1`, which melting point is on record?
A: 141 to 144 °C

Q: For `CC1CN(Cc2ccccc2)CC(NC(=O)c2n[nH]c3ccccc23)CN1C` (centres undefined), which melting point is on record?
A: 162 to 163 °C

Q: For `O=[N+]([O-])c1ccc(Oc2ccc(Cl)cc2)cc1`, which melting point is on record?
A: 67 to 70 °C

Q: Which melting point does the source give for `O=Cc1cc(Oc2ccccc2)ccc1O` here?
A: 54 to 55 °C

Q: With `O=C1N[C@H](Cc2ccc(Oc3ccccc3)cc2)[C@H](c2ccc(F)cc2)O1` (racemic) as the compound, how does the melting point read?
A: 144 to 145 °C

Q: With `CCCCc1nc2c(C#N)ncc(C)c2[nH]1` as the compound, how does the melting point read?
A: 197 to 198 °C

Q: With `CCCCc1ccc(C#Cc2ccc(Br)cc2)cc1` as the compound, how does the melting point read?
A: 75.6 to 76.1 °C

Q: For `CC(=O)c1ccc(-n2c(-c3sc(Nc4ccccc4)nc3-c3ccccc3)nc3ccccc3c2=O)cc1`, which melting point is on record?
A: 223 to 225 °C

Q: For `Cc1ccc2cccc(OCc3c(C)ccc(NC(=O)CN4C(=O)c5ccccc5C4=O)c3C)c2n1`, which melting point is on record?
A: 266 to 268 °C

Q: With `O=C(O)c1cn(-c2cc(O)c(F)cc2[N+](=O)[O-])c2c(Cl)c(F)c(F)cc2c1=O` as the compound, how does the melting point read?
A: 248 to 255 °C

Q: With `CCCCC(C#N)(Cn1ccnc1)c1ccc(S(=O)c2ccccc2)cc1` (centres undefined) as the compound, how does the melting point read?
A: 55 to 61 °C

Q: Which melting point does the source give for `COc1cc(OC)c(-c2cc3ccccc3[nH]2)cc1C=CC(=O)c1ccc(S(=O)(=O)Nc2ccccn2)cc1` here?
A: 206 to 208 °C

Q: For `COc1cc(NCCOc2ccccc2C)ccc1C(=O)N1CCCC(CC(=O)N2CCN(C)CC2)c2cc(Cl)ccc21` (centres undefined), which melting point is on record?
A: 160 to 161 °C

Q: For `O=c1[nH]c2cc(F)c(Br)c([N+](=O)[O-])c2[nH]c1=O`, which melting point is on record?
A: 323 to 327 °C

Q: For `Cc1cc(C)c2c(c1)C(=O)CC21CNC(=O)C1` (centres undefined), which melting point is on record?
A: 208 to 210 °C

Q: Which melting point does the source give for `Clc1ccc2onc(CBr)c2c1` here?
A: 83 to 85 °C

Q: Which melting point does the source give for `COc1ccccc1OC(CCN)c1ccccc1` (centres undefined) here?
A: 118 to 121 °C

Q: Which melting point does the source give for `Cc1nc(NC(=O)c2cccc(Cl)c2)sc1C(=O)NCc1ccccc1` here?
A: 178 to 179 °C

Q: With `O=C(O)c1ccccc1COC1CCn2c(CCc3ccccc3)nc3cccc1c32` (centres undefined) as the compound, how does the melting point read?
A: 154 to 155 °C

Q: For `CC(C)SN1N=C(c2cccc([N+](=O)[O-])c2)C(SC(C)C)(SC(C)C)C1=O`, which melting point is on record?
A: 73 to 74 °C

Q: With `CCCCc1c(-c2ccncc2)[nH]c(-c2ccncc2)c1C(C)=O` as the compound, how does the melting point read?
A: 93 to 95 °C

Q: For `Nc1ccc(-c2noc(-c3cnn4c(C(F)(F)F)cc(-c5ccc(C(F)(F)F)c(Cl)c5)nc34)n2)cn1`, which melting point is on record?
A: 234 °C

Q: With `CSc1nccc(-c2c(-c3ccc(F)cc3)ncn2C2CCNCC2)n1` as the compound, how does the melting point read?
A: 182 to 183 °C

Q: Which melting point does the source give for `Cc1csc(Nc2cc3ccccc3cn2)n1` here?
A: 212 to 215 °C

Q: Which melting point does the source give for `O=C(CC1(O)C(=O)N(Cc2ccc(Cl)cc2)c2ccccc21)C1CC1` (centres undefined) here?
A: 102 to 103 °C

Q: For `O=C(O)c1cccc(-c2ccc3ncn(Cc4ccc(Cl)cc4Cl)c3n2)c1`, which melting point is on record?
A: 258 to 260 °C

Reference: a melting point compilation (Tetko et al.; mined from patent text by program, amines drawn as free bases though some values may be those of a salt)
